Results: patent US20030013660A1, “Dioxolane analogs for improved inter-cellular delivery” (Shire BioChem Inc., priority 2000, published 2003)
Where “and” joins values, the source holds several entries; their conditions need not be identical. Equal entries are not always repeated. Where two headings read alike, the source gives them in different places.

Key:
CEM cells = experiment: CellTiter 96 cell proliferation assay (chemosensitivity), 48 h; assay type: cell-based; details: for EC50: Homo sapiens, CCRF-CEM, read-out: EC50 (50% of the dose response curve); for effect of the es transport inhibitor NBMPR on resistance of CEM cells: presence of NBMPR
Experimental: (§1) The chemosensitivity of suspension cells lines (e.g., CEM or CEM-derivatives) is assessed using the CellTiter 96 ? proliferation assay. […] Adherent cell lines (e.g., DU145 or DU145^R) are seeded (^˜10^5 cells) in triplicate dishes, 24 h before drug exposure. Growth inhibition is determined by trypsinization and counting cells electronically.

SF-268 [1] = experiment: MTT assay at 72 hr (24 hr drug exposure, wash, 48 hr); assay type: cell-based; details: Homo sapiens
Experimental: (§2) Exposition of 24hr to drug, washed, and incubated for another 48hr (total of 72hr assay)

H-460 [2] = experiment: 3H-TdR (3H-thymidine) incorporation assay at 72 hr; assay type: cell-based, Human
SF-268 [3] = experiment: 3H-TdR (3H-thymidine) incorporation assay at 72 hr; assay type: cell-based, Human
CEM/ARAC8C cells [4] = experiment: Cellular uptake assay of [3H]nucleoside in nucleoside-transport deficient CEM/ARAC8C cells; assay type: in vitro ADME
Experimental: FIG. 1 Comparative uptake of 30 μM [^3H]-troxacitabine in CEM (Panel A) and CEM/ARAC8C (Panel B) cells. [^3H]-Uridine uptake in either the presence or absence of the hENT1 inhibitor, NBMPR or 5 mM non-radioactive uridine was included for comparison as a control substrate.

hENT1 = target: T1, hENT1 (Homo sapiens, UniProt Q99808); experiment: Cellular uptake assay of [3H]nucleoside in DU145 cells, with or without NBMPR or excess non-radioactive troxacitabine; assay type: in vitro ADME; design: The presence of functional es-mediated transport (hENT1) in DU145 cells; endogenous in cells; host or cells: DU145 cells; details: DU-145, 10 μM, 6-min time course, read-out: inhibition of total [3H]uridine uptake in the presence of NBMPR
T1 sequence (Q99808 1-456): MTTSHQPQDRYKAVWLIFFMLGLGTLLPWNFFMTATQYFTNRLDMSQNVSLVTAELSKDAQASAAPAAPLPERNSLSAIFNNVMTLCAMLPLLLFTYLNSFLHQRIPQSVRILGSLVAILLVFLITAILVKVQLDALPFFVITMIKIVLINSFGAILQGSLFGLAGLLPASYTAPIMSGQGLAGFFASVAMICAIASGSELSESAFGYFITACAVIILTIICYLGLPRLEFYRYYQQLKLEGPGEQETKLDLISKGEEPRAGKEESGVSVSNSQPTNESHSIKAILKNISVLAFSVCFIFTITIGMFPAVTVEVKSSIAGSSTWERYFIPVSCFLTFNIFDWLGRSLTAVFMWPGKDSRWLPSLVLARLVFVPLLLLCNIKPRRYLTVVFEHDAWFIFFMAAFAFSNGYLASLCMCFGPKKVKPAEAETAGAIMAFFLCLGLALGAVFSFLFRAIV
Experimental: Cancer Res., 56: 4187-4191.
This experiment is designed to show whether [^3H]L-troxacitabine (10 μM) is taken up by DU145 cells and if the rate of uptake is affected by the addition of high concentrations (1 mM) of non-radioactive troxacitabine.

CEM/dCK- [5] = experiment: MTT or WST-1 assay at 72 hr (24 hr drug exposure, wash, 48 hr); assay type: cell-based; details: for Resistance Factor*: single experiment
Experimental: as §2

CCRF-CEM [6] = experiment: as above; assay type: cell-based; details: Homo sapiens, CCRF-CEM
Experimental: as §2

CEM/dCK- [7] = experiment: 3H-TdR incorporation at 72 hr (24 hr drug exposure, wash, 48 hr); assay type: cell-based; details: Homo sapiens, CCRF-CEM, read-out: IC50 in μM (3H-TdR incorporation at 72 hr) CEM/dCK- 24 h, CCRF-CEM deoxycytidine kinase-deficient; 24 h drug exposure, 72 hr assay
Experimental: (§3) Exposition of 24 hr to drug, wash, incubated for another 48 hr (total of 72 hr assay)
(§4) (3H-Thymidine Incorporation Assay)

H-460 [8] = experiment: MTT assay at 72 hr (24 hr drug exposure, wash, 48 hr); assay type: cell-based
Experimental: as §2

MCF-7 [9] = experiment: as above; assay type: cell-based; details: Homo sapiens
Experimental: as §2

H-460 [10] = experiment: 3H-TdR incorporation at 72 hr (24 hr drug exposure, wash, 48 hr); assay type: cell-based, Human; details: Homo sapiens, NCI-H460, read-out: IC50 in μM (3H-TdR incorporation at 72 hr) H-460 24 h, H-460 Human Lung Carcinoma, 72 hr assay
Experimental: as §3, §4

MCF-7 [11] = experiment: as above; assay type: cell-based, Human; details: Homo sapiens, MCF7, read-out: IC50 in μM (3H-TdR incorporation at 72 hr) MCF-7 24 h, MCF-7 Human Breast Carcinoma, 72 hr assay
Experimental: as §3, §4

SF-268 [12] = experiment: as above; assay type: cell-based, Human; details: Homo sapiens, SF-268, read-out: IC50 in μM (3H-TdR incorporation at 72 hr) SF-268 24 h, SF-268 Human Central Nervous System Tumor; 24 h drug exposure, 72 hr assay
Experimental: as §3, §4

CEM/dCK- [13] = experiment: 3H-TdR (3H-thymidine) incorporation assay at 72 hr; assay type: cell-based
Experimental: (§5) Table of IC50 Values (μM) for Controls
as §3, §4

CCRF-CEM [14] = experiment: 3H-TdR (3H-thymidine) incorporation assay at 72 hr; assay type: cell-based
Experimental: as §5, §3, §4

CEM/dCK cells = experiment: CellTiter 96 cell proliferation assay (chemosensitivity), 48 h; assay type: cell-based; details: read-out: EC50 (50% of the dose response curve), 48 h exposure
Experimental: as §1

CEM/ARAC8C cells [15] = experiment: as above; assay type: cell-based
Experimental: as §1

MCF-7 [16] = experiment: 3H-TdR (3H-thymidine) incorporation assay at 72 hr; assay type: cell-based, Human
[17] = SF-268, read-out: IC50 SF-268 24 h, Average, MTT at 72 hr, Average of the experiments
[18] = Homo sapiens, NCI-H460, 24 h, read-out: IC50 H-460 24 h, Average, Average ± spread of the repeat determinations, 24 h exposure
[19] = read-out: IC50 H-460 24 h, 24 h drug exposure, wash, another 48 hr, 3H-TdR incorporation at 72 hr
[20] = Homo sapiens, SF-268, 24 h, read-out: IC50 SF-268 24 h, Average, Average ± spread of the repeat determinations, 24 h exposure
[21] = read-out: IC50 CEM/dCK- 24 h, MMT or WST-1 at 72 hr, 24 h exposure, single experiment
[22] = read-out: IC50 CCRF-CEM 24 h, MMT or WST-1 at 72 hr, 24 h exposure, single experiment
[23] = Homo sapiens, NCI-H460, read-out: IC50 H-460 24 h, MTT at 72 hr, 24 h exposure, single experiment
[24] = MCF7, read-out: IC50 MCF-7 24 h, MTT at 72 hr, 24 h exposure, single experiment
[25] = SF-268, read-out: IC50 SF-268 24 h, MTT at 72 hr, 24 h exposure, single experiment

With Nc1ccn([C@@H]2O[C@H](CO)[C@@H](O)[C@@H]2O)c(=O)n1 [Cytarabine, cytarabine, reference compound] the EC50 (CEM cells; 48 h) was 10 nM, the “effect of the es transport inhibitor NBMPR on resistance of CEM cells” value (CEM cells) was “increased resistance” and the IC50 (SF-268 [1]; [17]) was 25000 ± 23000 nM. For the same compound, the IC50 (H-460 [2]; [18]) was 52 nM, the IC50 (H-460 [2]; [19]) was 13 nM and 99 nM and the IC50 (SF-268 [3]; [20]) was 940 nM. It also gave an IC50 (SF-268 [3]; read-out: IC50 SF-268 24 h, 24 h drug exposure, wash, another 48 hr, 3H-TdR incorporation at 72 hr, listed as Cytosine Arabinoside) of 300 nM.
In the case of O=c1ccn([C@@H]2O[C@H](CO)[C@@H](O)[C@H]2O)c(=O)[nH]1 [uridine], the “uptake of [3H]nucleoside over the 6-min time course” value (CEM/ARAC8C cells [4]) is reported as “Lack of [^3H]uridine uptake” and the inhibition at 10 µM (hENT1) is reported as about 75%.
In the case of CCCCC/C=C\C/C=C\CCCCCCCC(=O)Nc1ccn([C@@H]2CO[C@H](CO)O2)c(=O)n1 [Compound 217, OCTADECA-9,12-DIENOIC ACID [1-(2- HYDROXYMETHYL- [1,3]DIOXOLAN-4-YL)-2- OXO-1,2-DIHYDRO- PYRIMIDIN-4-YL]-AMIDE], the “Resistance Factor*” value (CEM/dCK- [5]; CEM/dCK- versus CCRF-CEM) is reported as 75, the IC50 (CEM/dCK- [5]; [21]) is reported as 27000 nM and the IC50 (CCRF-CEM [6]; [22]) is reported as 360 nM. The IC50 (CEM/dCK- [7]) was 1.2 µM, the IC50 (H-460 [8]; [23]) was 11 nM and the IC50 (MCF-7 [9]; [24]) was 3.9 nM. The IC50 (SF-268 [1]; [25]) was 120 nM, the IC50 (H-460 [10]) was at most 0.0001 µM and the IC50 (MCF-7 [11]) was at most 0.0001 µM. It also gave an IC50 (SF-268 [12]) of 0.00013 µM.
CCCCCCCC/C=C/CCCCCCCC(=O)Nc1ccn([C@@H]2CO[C@H](CO)O2)c(=O)n1 (stereo in doubt) [Compound 216, Octadec-9-enoic acid [1-(2-hydroxymethyl-[1,3]dioxolan-4-yl)-2-oxo-1,2-dihydro-pyrimidin-4-yl]-amide] was tested, and the “Resistance Factor*” value (CEM/dCK- [5]; CEM/dCK- versus CCRF-CEM) was 91, the IC50 (CEM/dCK- [5]; [21]) was 31000 nM and the IC50 (CCRF-CEM [6]; [22]) was 340 nM. The IC50 (CEM/dCK- [7]) was 14 µM, the IC50 (H-460 [8]; [23]) was 64 nM and the IC50 (MCF-7 [9]; [24]) was 9.4 nM. The IC50 (SF-268 [1]; [25]) was 400 nM, the IC50 (H-460 [10]) was 0.00088 µM and the IC50 (MCF-7 [11]) was at most 0.0001 µM. The IC50 (SF-268 [12]) was 0.018 µM.
In the case of Nc1ccn([C@@H]2O[C@H](CO)[C@@H](O)C2(F)F)c(=O)n1 [Gemcitabine, gemcitabine, reference compound], the IC50 (CEM/dCK- [13]; 24 h, read-out: IC50 CEM/dCK- 24 h, Average, Average ± spread of the repeat determinations, 24 h exposure) is reported as 66000 ± 24000 nM, the “Factor* (Resistance Factor), Average” value (CEM/dCK- [13]; Average ± spread of the ratios dCK- on wild-type CCRF-CEM) is reported as 8618 ± 3614 and the IC50 (CEM/dCK- [13]; read-out: IC50 CEM/dCK- 24 h, 24 h drug exposure, wash, another 48 hr, deoxycytidine kinase-deficient CCRF-CEM) is reported as 51000 nM and 41000 nM and 30000 nM. For the same compound, the IC50 (CCRF-CEM [14]; Homo sapiens, CCRF-CEM, 24 h, read-out: IC50 CCRF-CEM 24 h, Average, Average ± spread of the repeat determinations, 24 h exposure) was 8.4 nM, the IC50 (CCRF-CEM [14]; read-out: IC50 CCRF-CEM 24 h, 24 h drug exposure, wash, another 48 hr, 3H-TdR incorporation at 72 hr) was 10 nM and 9.2 nM and the “Resistance Factor*, Average” value (CEM/dCK- [5]; CEM/dCK- versus CCRF-CEM, Average of the experiments) was 3987 ± 3871. For the same compound, the IC50 (CEM/dCK- [5]; read-out: IC50 CEM/dCK- 24 h, Average, MMT or WST-1 at 72 hr, Average of the experiments) was 57000 ± 39000 nM, the IC50 (CCRF-CEM [6]; read-out: IC50 CCRF-CEM 24 h, Average, MMT or WST-1 at 72 hr, Average of the experiments) was 20 ± 23 nM and the EC50 (CEM/dCK cells) was over 50000 nM. The “level of resistance of nucleoside-transport deficient CEM/ARAC8C cells” value (CEM/ARAC8C cells [15]; CEM/ARAC8C compared to CEM) was 431 fold, the EC50 (CEM/ARAC8C cells [15]; read-out: EC50 (50% of the dose response curve), CEM/ARAC8C cells, 48 h exposure) was 8630 nM and the EC50 (CEM cells; CEM cells, 48 h exposure) was 20 nM. For the same compound, the “effect of the es transport inhibitor NBMPR on resistance of CEM cells” value (CEM cells) was “increased resistance”, the IC50 (H-460 [8]; Homo sapiens, NCI-H460, read-out: IC50 H-460 24 h, Average, MTT at 72 hr, Average of the experiments) was 72 ± 100 nM and the IC50 (H-460 [8]; read-out: IC50 H-460 24 h, MTT at 72 hr, 24 h exposure, single experiment) was 12 nM and 86 nM. It also gave an IC50 (MCF-7 [9]; MCF7, read-out: IC50 MCF-7 24 h, Average, MTT at 72 hr, Average of the experiments) of 78 nM, an IC50 (SF-268 [1]; [17]) of 180 ± 250 nM and an IC50 (H-460 [2]; [18]) of 11 nM. The IC50 (H-460 [2]; [19]) was 9.1 nM and 10 nM and 8.3 nM, the IC50 (SF-268 [3]; [20]) was 8.6 nM and the IC50 (SF-268 [3]; read-out: IC50 SF-268 24 h, 24 h drug exposure, wash, another 48 hr, 3H-TdR incorporation at 72 hr) was 4.5 nM and 10 nM and 9.4 nM. For the same compound, the IC50 (MCF-7 [16]; Homo sapiens, MCF7, 24 h, read-out: IC50 MCF-7 24 h, Average, Average ± spread of the repeat determinations, 24 h exposure) was 6.8 nM and the IC50 (MCF-7 [16]; read-out: IC50 MCF-7 24 h, 24 h drug exposure, wash, another 48 hr, 3H-TdR incorporation at 72 hr) was 8.7 nM and 10 nM.
